Experimental data reported in patent US9265253B2, “Use of macrocyclic picolinamides as fungicides” (DOW AGROSCIENCES LLC, priority 2013, dated 2016).

Tests used:
Type in all cases: in vivo
[1] = tested on: Erysiphe cichoracearum; experiment: Powdery Mildew of Cucumber (ERYSCI) disease control; settings: Golovinomyces cichoracearum, topical, 24 h, 1 Day Protectant, read-out: Disease Control ERYSCI 1 DP
Method: Technical grades of materials were dissolved in acetone, which were then mixed with nine volumes of water containing 110 ppm Triton X-100. The fungicide solutions were applied onto wheat seedlings using an automated booth sprayer to run-off. All sprayed plants were allowed to air dry prior to further handling. All fungicides were evaluated using the aforementioned method for their activity vs. all target diseases. Wheat leaf blotch and brown rust activity were also evaluated using track spray applications, in which case the fungicides were formulated as EC formulations, containing 0.1% Trycol 5941 in the spray solutions. Wheat plants (variety Yuma) were grown from seed in a greenhouse in 50% mineral soil/50% soil-less Metro mix until the first leaf was fully emerged, with 7-10 seedlings per pot. These plants were inoculated with an aqueous spore suspension of Septoria tritici either prior to or after fungicide treatments. After inoculation the plants were kept in 100% relative humidity (one day in a dark dew chamber followed by two to three days in a lighted dew chamber at 20° C.) to permit spores to germinate and infect the leaf. The plants were then transferred to a greenhouse set at 20° C. for disease to develop. When disease symptoms were fully expressed on the 1st leaves of untreated plants, infection levels were assessed on a scale of 0 to 100 percent disease severity. Percent disease control was calculated using the ratio of disease severity on treated plants relative to untreated plants. Cucumber seedlings (variety Bush Pickle) were grown in soil-less Metro mix, with one plant per pot, and used in the test when 12 to 14 days old. Plants were inoculated with a spore suspension 24 hr following fungicide treatments. After inoculation the plants remained in the greenhouse set at 20° C. until disease was fully expressed. Fungicide formulation, application and disease assessment on the sprayed leaves followed the procedures as described in the Example A.

[2] = tested on: Leptosphaeria nodorum; experiment: Wheat Glume Blotch (LEPTNO) disease control; settings: Parastagonospora nodorum, topical, 24 h, 1 Day Protectant, read-out: Disease Control LEPTNO 1 DP
Method: Technical grades of materials were dissolved in acetone, which were then mixed with nine volumes of water containing 110 ppm Triton X-100. The fungicide solutions were applied onto wheat seedlings using an automated booth sprayer to run-off. All sprayed plants were allowed to air dry prior to further handling. All fungicides were evaluated using the aforementioned method for their activity vs. all target diseases. Wheat leaf blotch and brown rust activity were also evaluated using track spray applications, in which case the fungicides were formulated as EC formulations, containing 0.1% Trycol 5941 in the spray solutions. Wheat plants (variety Yuma) were grown from seed in a greenhouse in 50% mineral soil/50% soil-less Metro mix until the first leaf was fully emerged, with 7-10 seedlings per pot. These plants were inoculated with an aqueous spore suspension of Septoria tritici either prior to or after fungicide treatments. After inoculation the plants were kept in 100% relative humidity (one day in a dark dew chamber followed by two to three days in a lighted dew chamber at 20° C.) to permit spores to germinate and infect the leaf. The plants were then transferred to a greenhouse set at 20° C. for disease to develop. When disease symptoms were fully expressed on the 1st leaves of untreated plants, infection levels were assessed on a scale of 0 to 100 percent disease severity. Percent disease control was calculated using the ratio of disease severity on treated plants relative to untreated plants. Wheat plants (variety Yuma) were grown from seed in a greenhouse in 50% mineral soil/50% soil-less Metro mix until the first leaf was fully emerged, with 7-10 seedlings per pot. These plants were inoculated with an aqueous spore suspension of Leptosphaeria nodorum 24 hr after fungicide treatments. After inoculation the plants were kept in 100% relative humidity (one day in a dark dew chamber followed by two days in a lighted dew chamber at 20° C.) to permit spores to germinate and infect the leaf. The plants were then transferred to a greenhouse set at 20° C. for disease to develop. Fungicide formulation, application and disease assessment followed the procedures as described in the Example A.

[3] = tested on: Venturia inaequalis; experiment: Apple Scab (VENTIN) disease control; settings: Venturia inaequalis, topical, 24 h, 1 Day Protectant, read-out: Disease Control VENTIN 1 DP
Method: Technical grades of materials were dissolved in acetone, which were then mixed with nine volumes of water containing 110 ppm Triton X-100. The fungicide solutions were applied onto wheat seedlings using an automated booth sprayer to run-off. All sprayed plants were allowed to air dry prior to further handling. All fungicides were evaluated using the aforementioned method for their activity vs. all target diseases. Wheat leaf blotch and brown rust activity were also evaluated using track spray applications, in which case the fungicides were formulated as EC formulations, containing 0.1% Trycol 5941 in the spray solutions. Wheat plants (variety Yuma) were grown from seed in a greenhouse in 50% mineral soil/50% soil-less Metro mix until the first leaf was fully emerged, with 7-10 seedlings per pot. These plants were inoculated with an aqueous spore suspension of Septoria tritici either prior to or after fungicide treatments. After inoculation the plants were kept in 100% relative humidity (one day in a dark dew chamber followed by two to three days in a lighted dew chamber at 20° C.) to permit spores to germinate and infect the leaf. The plants were then transferred to a greenhouse set at 20° C. for disease to develop. When disease symptoms were fully expressed on the 1st leaves of untreated plants, infection levels were assessed on a scale of 0 to 100 percent disease severity. Percent disease control was calculated using the ratio of disease severity on treated plants relative to untreated plants. Apple seedlings (variety McIntosh) were grown in soil-less Metro mix, with one plant per pot. Seedlings with two expanding young leaves at the top (older leaves at bottom of the plants were trimmed) were used in the test. Plants were inoculated with a spore suspension of Venturia inaequalis 24 hr after fungicide treatment and kept in a 22° C. dew chamber with 100% RH for 48 hr, and then moved to a greenhouse set at 20° C. for disease to develop. Fungicide formulation, application and disease assessment on the sprayed leaves followed the procedures as described in the Example A.

[4] = tested on: Cercospora beticola; experiment: Leaf Spot of Sugar Beets (CERCBE) disease control; settings: Cercospora beticola, topical, 24 h, 1 Day Protectant, sugar beet, read-out: Disease Control CERCBE 1 DP
Method: Technical grades of materials were dissolved in acetone, which were then mixed with nine volumes of water containing 110 ppm Triton X-100. The fungicide solutions were applied onto wheat seedlings using an automated booth sprayer to run-off. All sprayed plants were allowed to air dry prior to further handling. All fungicides were evaluated using the aforementioned method for their activity vs. all target diseases. Wheat leaf blotch and brown rust activity were also evaluated using track spray applications, in which case the fungicides were formulated as EC formulations, containing 0.1% Trycol 5941 in the spray solutions. Wheat plants (variety Yuma) were grown from seed in a greenhouse in 50% mineral soil/50% soil-less Metro mix until the first leaf was fully emerged, with 7-10 seedlings per pot. These plants were inoculated with an aqueous spore suspension of Septoria tritici either prior to or after fungicide treatments. After inoculation the plants were kept in 100% relative humidity (one day in a dark dew chamber followed by two to three days in a lighted dew chamber at 20° C.) to permit spores to germinate and infect the leaf. The plants were then transferred to a greenhouse set at 20° C. for disease to develop. When disease symptoms were fully expressed on the 1st leaves of untreated plants, infection levels were assessed on a scale of 0 to 100 percent disease severity. Percent disease control was calculated using the ratio of disease severity on treated plants relative to untreated plants. Sugar beet plants (variety HH88) were grown in soil-less Metro mix and trimmed regularly to maintain a uniform plant size prior to test. Plants were inoculated with a spore suspension 24 hr after fungicide treatments. Inoculated plants were kept in a dew chamber at 22° C. for 48 hr then incubated in a greenhouse set at 24° C. under a clear plastic hood with bottom ventilation until disease symptoms were fully expressed. Fungicide formulation, application and disease assessment on the sprayed leaves followed the procedures as described in the Example A.

`COc1ccnc(C(=O)N[C@H]2CCC[C@H](CCF)[C@@H](OCC(C)C)[C@H](C)OC2=O)c1OCOC(C)=O` [Compound F128, ((2-(((3S,7R,8R,9S)-7-(2-fluoroethyl)-8-isobutoxy-9-methyl-2-oxooxonan-3-yl)carbamoyl)-4-methoxypyridin-3-yl)oxy)methyl acetate] gave a pest or weed control at 100 ppm [1] of 0 to 80%, a pest or weed control at 100 ppm [2] of 80 to 100% and a pest or weed control at 100 ppm [3] of 0 to 80%. It also gave a pest or weed control at 100 ppm [4] of 80 to 100%.

For `CCCO[C@@H]1[C@@H](Cc2ccccc2)CCC[C@H](NC(=O)c2nccc(OC)c2OCOC(=O)COCC)C(=O)O[C@H]1C` [Compound F174], the pest or weed control at 100 ppm [1] was 80 to 100%, the pest or weed control at 100 ppm [2] was 80 to 100% and the pest or weed control at 100 ppm [3] was 80 to 100%. It also gave a pest or weed control at 100 ppm [4] of 80 to 100%.

With `COc1ccnc(C(=O)N[C@H]2CCC[C@H](Cc3ccccc3)[C@@H](OCC(C)C)[C@H](C)OC2=O)c1OCOC(=O)C(C)C` [Compound F151] the pest or weed control at 100 ppm [1] was 80 to 100%, the pest or weed control at 100 ppm [2] was 80 to 100% and the pest or weed control at 100 ppm [3] was 0 to 80%. The pest or weed control at 100 ppm [4] was 80 to 100%.

For `CCOCC(=O)OCOc1c(OC)ccnc1C(=O)N[C@H]1CCC[C@H](CCOC)[C@@H](Oc2ccccc2)[C@H](C)OC1=O` [Compound F183], the pest or weed control at 100 ppm [1] was 0 to 80%, the pest or weed control at 100 ppm [2] was 80 to 100% and the pest or weed control at 100 ppm [3] was 0 to 80%. The pest or weed control at 100 ppm [4] was 0 to 80%.

`CCCO[C@@H]1[C@@H](CCC(C)C)CCC[C@H](NC(=O)c2nccc(OC)c2OCOC(C)=O)C(=O)O[C@H]1C` [Compound F92] showed a pest or weed control at 100 ppm [1] of 80 to 100%, a pest or weed control at 100 ppm [2] of 80 to 100% and a pest or weed control at 100 ppm [3] of 80 to 100%. For the same compound, the pest or weed control at 100 ppm [4] was 80 to 100%.
